Measurements: patent publication US9669029B2, “Heteroaromatic phenylimidazole derivatives as PDE10A enzyme inhibitors” (H. Lundbeck A/S, priority 2009, dated 2017)

Assays:
rats = settings: cited from earlier work
PDE10A = PDE10A (Homo sapiens (Human), UniProt Q9Y233); assay: PDE10A inhibition assay; assay type: biochemical
Procedure: Active PDE10A enzyme is prepared in a number of ways for use in PDE assays (Loughney, K. et al. Gene 1999, 234, 109-117; Fujishige, K. et al. Eur J Biochem. 1999, 266, 1118-1127 and Soderling, S. et al. Proc. Natl. Acad. Sci. 1999, 96, 7071-7076). PDE10A can be expressed as full-length proteins or as truncated proteins, as long as they express the catalytic domain. PDE10A can be prepared in different cell types, for example insect cells or E. coli. […]
A PDE10A assay may for example, be performed as follows: The assay is performed in 60 uL samples containing a fixed amount of the relevant PDE enzyme (sufficient to convert 20-25% of the cyclic nucleotide substrate), a buffer (50 mM HEPES7.6; 10 mM MgCl2; 0.02% Tween20), 0.1 mg/ml BSA, 225 pCi of ^3H-labelled cyclic nucleotide substrate, tritium labeled cAMP to a final concentration of 5 nM and varying amounts of inhibitors. […] The beads are allowed to settle for one hr in the dark before the plates are counted in a Wallac 1450 Microbeta counter. The measured signal can be converted to activity relative to an uninhibited control (100%) and IC50 values can be calculated using the Xlfit extension to EXCEL.

PDE10A, sequence (Q9Y233 716-1055): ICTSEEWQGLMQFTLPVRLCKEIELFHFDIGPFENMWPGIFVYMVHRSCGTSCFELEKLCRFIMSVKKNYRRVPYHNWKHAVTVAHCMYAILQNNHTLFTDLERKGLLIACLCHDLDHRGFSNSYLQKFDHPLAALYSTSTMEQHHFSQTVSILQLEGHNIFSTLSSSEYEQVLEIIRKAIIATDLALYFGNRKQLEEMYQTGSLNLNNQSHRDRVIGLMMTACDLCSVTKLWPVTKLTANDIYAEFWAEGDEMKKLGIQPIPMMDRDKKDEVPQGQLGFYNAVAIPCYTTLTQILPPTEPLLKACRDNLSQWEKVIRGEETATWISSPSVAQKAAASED

COc1ccc(Cc2nccc3cc(OC)c(OC)cc23)cc1OC [Papaverine, papaverine]
catalepsy on its own (rats; papaverine alone): did not cause catalepsy | effect on the cataleptic effect of the D2 receptor antagonist haloperidol (rats; with haloperidol): potentiated

COc1cccn2nc(/C=C/c3nc(-c4ccc(C)o4)cn3C)nc12 [8-Methoxy-2-{(E)-2-[1-methyl-4-(5-methyl-furan-2-yl)-1H-imidazol-2-yl]-vinyl}-[1,2,4]triazolo[1,5-a]pyridine]
IC50 (PDE10A): 0.14 µM

Cc1cccn2nc(CCc3nc(-c4cccnc4)cn3C)nc12 [8-Methyl-2-[2-(1-methyl-4-pyridin-3-yl-1H-imidazol-2-yl)-ethyl]-[1,2,4]triazolo[1,5-a]pyridine]
IC50 (PDE10A): 0.075 µM
